In ChEMBL document CHEMBL1201862, “PubChem BioAssay data set” (2004):
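Protocol summary: plate cells (96-well), add compound at 5 concentrations, incubate 48 h, interpolate endpoints linearly. Abbreviation: GI50, concentration required for 50% inhibition of growth.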 Calls of active or inactive are those of the source. Cut-off read from the data, not from the text of the source: active = GI50 up to about 1.1 µM and inactive = higher.

How the values were obtained:
Assay in all cases: NCI anticancer screen, dose series, 48 h
U-251 = system: U-251
SF-539 = system: SF-539
BT-549 = system: BT-549
OVCAR-5 = system: OVCAR-5
UACC-257 = system: UACC-257
UACC-62 = system: UACC-62
KM12 = system: KM12
MCF7 = system: MCF7
HCT-116 = system: HCT-116
DU-145 = system: DU-145
SK-MEL-2 = system: SK-MEL-2
SK-MEL-28 = system: SK-MEL-28
HT-29 = system: HT-29
MDA-MB-435 = system: MDA-MB-435
K562 = system: K562
HCC 2998 = system: HCC 2998
LOX IMVI = system: LOX IMVI
SR = system: SR
UO-31 = system: UO-31

SMILES	GI50 (U-251)	GI50 (SF-539)	GI50 (BT-549)	GI50 (OVCAR-5)	GI50 (UACC-257)	GI50 (UACC-62)	GI50 (KM12)	GI50 (MCF7)	GI50 (HCT-116)	GI50 (DU-145)	GI50 (SK-MEL-2)	GI50 (SK-MEL-28)	GI50 (HT-29)	GI50 (MDA-MB-435)	GI50 (K562)	GI50 (HCC 2998)	GI50 (LOX IMVI)	GI50 (SR)	GI50 (UO-31)
COc1cc(O)c2c(=O)c3cccc(C)c3[nH]c2c1	> 10 µM (inactive)	> 10 µM (inactive)	> 10 µM (inactive)	> 10 µM (inactive)	> 10 µM (inactive)	> 10 µM (inactive)	5.93 µM (inactive)	> 10 µM (inactive)	> 10 µM (inactive)	> 10 µM (inactive)	> 10 µM (inactive)	> 10 µM (inactive)	> 10 µM (inactive)	> 10 µM (inactive)	> 10 µM (inactive)	> 10 µM (inactive)	8.75 µM (inactive)	–	–
CC(=O)c1ccc2c(c1)CC1(C2)Cc2cc3c(cc2C1)C(=O)CC3 (stereo not given)	1.8 µM (inactive)	0.733 µM (active)	–	6.75 µM (inactive)	11.4 µM (inactive)	3.29 µM (inactive)	0.624 µM (active)	0.429 µM (active)	2.1 µM (inactive)	1.4 µM (inactive)	0.356 µM (active)	3.55 µM (inactive)	1.07 µM (active)	0.242 µM (active)	0.521 µM (active)	0.91 µM (active)	6.37 µM (inactive)	0.322 µM (active)	9.53 µM (inactive)
O=C(CC(C(=O)O)N1CCOCC1)c1ccccc1 (stereo not given)	16.7 µM (inactive)	22.6 µM (inactive)	18.6 µM (inactive)	22.3 µM (inactive)	13.4 µM (inactive)	14.6 µM (inactive)	–	15.7 µM (inactive)	14 µM (inactive)	23.6 µM (inactive)	19.1 µM (inactive)	19.5 µM (inactive)	17.1 µM (inactive)	–	18.8 µM (inactive)	–	17.5 µM (inactive)	16.4 µM (inactive)	–
O=S1(=O)C(c2ccccc2)=C(O)c2ccccc21	> 100 µM (inactive)	> 100 µM (inactive)	> 100 µM (inactive)	> 100 µM (inactive)	> 100 µM (inactive)	> 100 µM (inactive)	> 100 µM (inactive)	> 100 µM (inactive)	> 100 µM (inactive)	> 100 µM (inactive)	> 100 µM (inactive)	> 100 µM (inactive)	> 100 µM (inactive)	> 100 µM (inactive)	> 100 µM (inactive)	> 100 µM (inactive)	> 100 µM (inactive)	–	> 100 µM (inactive)
Nc1nnc2n1C(=O)C(C1(C3=Nc4nnc(N)n4C3=O)Cc3ccccc3C1=O)=N2	–	> 100 µM (inactive)	–	> 100 µM (inactive)	> 100 µM (inactive)	> 100 µM (inactive)	> 100 µM (inactive)	40.7 µM (inactive)	> 100 µM (inactive)	> 100 µM (inactive)	–	> 100 µM (inactive)	> 100 µM (inactive)	> 100 µM (inactive)	94 µM (inactive)	> 100 µM (inactive)	87.5 µM (inactive)	76.6 µM (inactive)	> 100 µM (inactive)
CC(C)(C)C1=C(Br)C(C(C)(C)C)OP1(=O)O (stereo not given)	> 100 µM (inactive)	> 100 µM (inactive)	–	> 100 µM (inactive)	> 100 µM (inactive)	> 100 µM (inactive)	> 100 µM (inactive)	> 100 µM (inactive)	> 100 µM (inactive)	> 100 µM (inactive)	> 100 µM (inactive)	> 100 µM (inactive)	> 100 µM (inactive)	> 100 µM (inactive)	> 100 µM (inactive)	> 100 µM (inactive)	> 100 µM (inactive)	–	> 100 µM (inactive)
C=C[C@@]1(O)CCCC2=C(C(=O)OCC)CC[C@]21C	> 100 µM (inactive)	> 100 µM (inactive)	–	> 100 µM (inactive)	> 100 µM (inactive)	–	> 100 µM (inactive)	–	–	–	90.8 µM (inactive)	> 100 µM (inactive)	64.4 µM (inactive)	–	30.8 µM (inactive)	> 100 µM (inactive)	–	54.1 µM (inactive)	> 100 µM (inactive)
c1ccc(/N=C2\c3ccsc3/C(=N/c3ccccc3)c3ccsc32)cc1	1.91 µM (inactive)	1.99 µM (inactive)	2.07 µM (inactive)	1.67 µM (inactive)	1.29 µM (inactive)	1.84 µM (inactive)	2.36 µM (inactive)	2.62 µM (inactive)	1.93 µM (inactive)	1.73 µM (inactive)	1.6 µM (inactive)	2.01 µM (inactive)	2.67 µM (inactive)	0.213 µM (active)	1.83 µM (inactive)	3.94 µM (inactive)	0.458 µM (active)	–	2.09 µM (inactive)
CN(C)c1ccc(/C=N/N=C2\C(=O)Nc3c(Cl)cc(Cl)cc32)cc1	79.3 µM (inactive)	39.5 µM (inactive)	36.6 µM (inactive)	> 100 µM (inactive)	> 100 µM (inactive)	42.2 µM (inactive)	10.1 µM (inactive)	46.2 µM (inactive)	39 µM (inactive)	–	32.1 µM (inactive)	47.3 µM (inactive)	26.1 µM (inactive)	22.5 µM (inactive)	20.6 µM (inactive)	64 µM (inactive)	25.6 µM (inactive)	6.46 µM (inactive)	22.9 µM (inactive)
c1ccc2c(c1)[C@@H]1O[C@@H]1[C@@]13O[C@@]21[C@H]1O[C@H]1c1ccccc13	12.3 µM (inactive)	16.5 µM (inactive)	16.2 µM (inactive)	17.1 µM (inactive)	17.6 µM (inactive)	12.2 µM (inactive)	12.9 µM (inactive)	10.1 µM (inactive)	12.1 µM (inactive)	15.3 µM (inactive)	14.7 µM (inactive)	16.9 µM (inactive)	20.2 µM (inactive)	13.7 µM (inactive)	13.6 µM (inactive)	16.6 µM (inactive)	10.2 µM (inactive)	–	33.4 µM (inactive)
Oc1cc(-c2cccc(OC(F)(F)F)c2)nc2cc3c(cc12)OCO3	0.0658 µM (active)	0.084 µM (active)	0.327 µM (active)	–	1.68 µM (inactive)	0.123 µM (active)	0.0968 µM (active)	0.135 µM (active)	0.0395 µM (active)	0.0459 µM (active)	0.169 µM (active)	0.323 µM (active)	1.96 µM (inactive)	< 0.0156 µM (active)	0.0275 µM (active)	0.0631 µM (active)	–	–	0.174 µM (active)
CCCNC(=S)N/N=C1\C(=O)Nc2ccccc21	> 100 µM (inactive)	> 100 µM (inactive)	–	> 100 µM (inactive)	> 100 µM (inactive)	> 100 µM (inactive)	> 100 µM (inactive)	> 100 µM (inactive)	> 100 µM (inactive)	> 100 µM (inactive)	> 100 µM (inactive)	> 100 µM (inactive)	> 100 µM (inactive)	> 100 µM (inactive)	> 100 µM (inactive)	> 100 µM (inactive)	> 100 µM (inactive)	> 100 µM (inactive)	> 100 µM (inactive)
O=[N+]([O-])c1cc2c([N+](=O)[O-])cccc2o1	18.4 µM (inactive)	2.49 µM (inactive)	15.7 µM (inactive)	–	6.93 µM (inactive)	13 µM (inactive)	15.2 µM (inactive)	3.5 µM (inactive)	2.72 µM (inactive)	14.7 µM (inactive)	9.16 µM (inactive)	3.15 µM (inactive)	4.09 µM (inactive)	18 µM (inactive)	–	17.6 µM (inactive)	3.66 µM (inactive)	–	1.88 µM (inactive)
CNC(=S)N/N=C/c1ccc([N+](=O)[O-])s1	> 10 µM (inactive)	> 10 µM (inactive)	> 10 µM (inactive)	> 10 µM (inactive)	> 10 µM (inactive)	> 10 µM (inactive)	3.99 µM (inactive)	–	5.48 µM (inactive)	> 10 µM (inactive)	> 10 µM (inactive)	> 10 µM (inactive)	3.13 µM (inactive)	> 10 µM (inactive)	> 10 µM (inactive)	8.15 µM (inactive)	> 10 µM (inactive)	4.81 µM (inactive)	> 10 µM (inactive)
C[C@@H]1[C@H](O)CC2=C(CC[C@@H](O)C2(C)C)[C@@]1(CO)CCc1ccoc1	> 50 µM (inactive)	> 50 µM (inactive)	> 50 µM (inactive)	> 50 µM (inactive)	> 50 µM (inactive)	> 50 µM (inactive)	> 50 µM (inactive)	> 50 µM (inactive)	> 50 µM (inactive)	–	> 50 µM (inactive)	> 50 µM (inactive)	> 50 µM (inactive)	–	> 50 µM (inactive)	> 50 µM (inactive)	> 50 µM (inactive)	25.1 µM (inactive)	> 50 µM (inactive)
Cn1c2c(c3ccccc31)CCN1C(=O)CN(C(=O)C3CCCCC3)CC21 (stereo not given)	> 100 µM (inactive)	> 100 µM (inactive)	–	> 100 µM (inactive)	> 100 µM (inactive)	> 100 µM (inactive)	> 100 µM (inactive)	> 100 µM (inactive)	> 100 µM (inactive)	> 100 µM (inactive)	> 100 µM (inactive)	> 100 µM (inactive)	> 100 µM (inactive)	> 100 µM (inactive)	> 100 µM (inactive)	> 100 µM (inactive)	> 100 µM (inactive)	> 100 µM (inactive)	> 100 µM (inactive)
